In ChEMBL document CHEMBL3044997, “Cytotoxic Effect of Coscinium Fenestratrum (Gaertn.) Colebr. and its Active Principle Berberine on L929 Cells” (2005):

What was measured:
Assay type in all cases: functional
[1] = test system: L929; test: Cytotoxicity against Mus musculus (mouse) L929 cells assessed as metabolically active cells at 200 ug/ml after 24 hr by MTT assay relative to control
[2] = test system: L929; test: Cytotoxicity against Mus musculus (mouse) L929 cells assessed as metabolically active cells at 150 ug/ml after 24 hr by MTT assay relative to control
[3] = test system: L929; test: Cytotoxicity against Mus musculus (mouse) L929 cells assessed as metabolically active cells at 100 ug/ml after 24 hr by MTT assay relative to control
[4] = test system: L929; test: Cytotoxicity against Mus musculus (mouse) L929 cells assessed as metabolically active cells at 50 ug/ml after 24 hr by MTT assay relative to control

With COc1ccc2cc3[n+](cc2c1OC)CCc1cc2c(cc1-3)OCO2.[Cl-] [BERBERINE CHLORIDE] the Activity [1] was 23.57%, the Activity [2] was 41.77% and the Activity [3] was 67.41%. It also gave an Activity [4] of 106.45%.
